Experimental data from patent US20100144626A1, “Treatment of Multi-Drug Resistant Bacterial Infections” (priority 2006, published 2010).
Converted amounts (≈) assume the structure as drawn. Read-outs that look alike come from different tables or passages of the source.

Key:
Type in all cases: cell-based
[1] = test system: strains of Staphylococci and Enterococci with reduced susceptibility to vancomycin; assay: Growth inhibition, summary of MIC testing; conditions: summary in words
Protocol: (§1) In example experiments miconazole nitrate, was dissolved in methanol and econazole nitrate and clotrimazole were dissolved in DMSO and methanol respectively. Other solvents that may be used include caster oil, pyridine, DMSO and 0.9% saline. For IV administration agents may be solubilised in polyethoxylated caster oil, or cyclodextrins such as sulfobutylether7-βcyclodextrin or hydroxypropyl-β-cyclodextrin and lactic acid. Minimum inhibitory concentrations (MICs) of a range of clinical and control bacterial organisms were measured according to BSAC (British Society for Antimicrobial Chemotherapy) guidelines, described briefly as follows;
(§2) Stock solutions were prepared at concentrations of 1000 mg/L and 100 mg/L. The appropriate amounts of each stock solution were added to separate Petri dishes give the following final concentrations (after the addition of 20 mL molten agar): 128, 64, 32, 16, 8, 4, 2, 1, 0.5, 0.25, 0.12, 0.06, 0.03, 0.015 mg/L.
(§3) The test organisms were grown overnight in 5 mL IST broth. Using a dilution in 0.9% saline of 1:500 for Gram-negative organisms and 1:100 for Gram-positive organisms, the appropriate agar plates were inoculated using a multipoint inoculator.
(§4) Plates were incubated at 37° C. in air for 18-20 hours.
(§5) The MIC is the minimum amount of an antibiotic at which there is no visible growth of bacteria. Tiny single colonies or faint hazes were not counted as growth.

Gram-negative organisms = assay: Growth inhibition, summary of MIC testing; conditions: summary in words
Protocol: as §1, §2, §3, §4, §5

[2] = test system: clinical MRSA and VISA strains; assay: MICs for clinical MRSA and VISA strains; conditions: Staphylococcus aureus; range over strains; read-out: MICs for the clinical MRSA and VISA strains tested
Protocol: as §1, §2
The test organisms were grown overnight in 5 mL IST broth. Using a dilution in 0.9% saline of 1:500 for Gram-negative organisms and 1:100 for Gram-positive organisms, the appropriate agar plates were inoculated using a multipoint inoculator. […]
as §5

[3] = test system: Enterococcus faecalis (VRE) E8 VanA; assay: MIC, agar dilution (BSAC guidelines); conditions: E. faecalis (VRE) E8 VanA
Protocol: as §1
(§6) Preparation of Agar Plates and Broths
(§7) Stock solutions of each agent were prepared using the formula:
(§8) Where P=μg of active compound per mg (μg/mg) • V=volume required (mL) • C=final concentration of solution (mg/L) • W=weight of agent (mg) to be dissolved in volume V (mL)
as §2
(§9) Volumes (20 mL) of cooled molten IST agar (oxoid) was added to each Petri dish and mixed by swirling.
(§10) After drying, the plates were stored at 4° C. and protected from light. Plates were used on the day of preparation.
as §3, §4, §5

[4] = test system: VISA, strain USA/VISA 5827; assay: MIC, agar dilution (BSAC guidelines); conditions: Staphylococcus aureus
Protocol: as §1, §6, §7, §8, §2, §9, §10, §3, §4, §5

[5] = test system: Klebsiella pneumoniae ESBL 700603; assay: MIC, agar dilution (BSAC guidelines)
Protocol: as §1, §6, §7, §8, §2, §9, §10, §3, §4, §5

[6] = test system: Staphylococcus epidermidis ATCC 1228; assay: MIC, agar dilution (BSAC guidelines)
Protocol: as §1, §6, §7, §8, §2, §9, §10, §3, §4, §5

[7] = test system: Pseudomonas aeruginosa NCTC 10662; assay: MIC, agar dilution (BSAC guidelines)
Protocol: as §1, §6, §7, §8, §2, §9, §10, §3, §4, §5

[8] = test system: Escherichia coli NCTC 10418; assay: MIC, agar dilution (BSAC guidelines)
Protocol: as §1, §6, §7, §8, §2, §9, §10, §3, §4, §5

[9] = test system: VISA, strain VISA 3900 UK; assay: MIC, agar dilution (BSAC guidelines); conditions: Staphylococcus aureus
Protocol: as §1, §6, §7, §8, §2, §9, §10, §3, §4, §5

[10] = test system: Enterococcus faecium (VRE) VanR B145344C LFE; assay: MIC, agar dilution (BSAC guidelines); conditions: E. faecium (VRE) VanR B145344C LFE
Protocol: as §1, §6, §7, §8, §2, §9, §10, §3, §4, §5

[11] = test system: Enterococcus faecium (VRE) NCTC 7171; assay: MIC, agar dilution (BSAC guidelines)
Protocol: as §1, §6, §7, §8, §2, §9, §10, §3, §4, §5

[12] = test system: Enterococcus faecium (VRE) E15 VanA ATCC 4147; assay: MIC, agar dilution (BSAC guidelines)
Protocol: as §1, §6, §7, §8, §2, §9, §10, §3, §4, §5

[13] = test system: Enterococcus gallinarum (VRE) E1 NCTC 12359 VanC1; assay: MIC, agar dilution (BSAC guidelines)
Protocol: as §1, §6, §7, §8, §2, §9, §10, §3, §4, §5

[14] = test system: Enterococcus faecium (VRE) E19 UAA/522 VanB; assay: MIC, agar dilution (BSAC guidelines); conditions: E. faecium (VRE) E19 UAA/522 VanB
Protocol: as §1, §6, §7, §8, §2, §9, §10, §3, §4, §5

[15] = test system: Acinetobacter Baumannii ATCC 19606; assay: MIC, agar dilution (BSAC guidelines)
Protocol: as §1, §6, §7, §8, §2, §9, §10, §3, §4, §5

[16] = test system: VISA, strain USA/VISA 5836; assay: MIC, agar dilution (BSAC guidelines); conditions: Staphylococcus aureus
Protocol: as §1, §6, §7, §8, §2, §9, §10, §3, §4, §5

[17] = replicate 1, read-out: Minimum inhibitory concentration (MIC)
[18] = replicate 2, read-out: Minimum inhibitory concentration (MIC)
[19] = replicate 3, read-out: Minimum inhibitory concentration (MIC)

For Clc1ccc(COC(Cn2ccnc2)c2ccc(Cl)cc2Cl)c(Cl)c1 (stereo not shown) [Miconazole, 1-[2-(2,4-dichlorophenyl)-2-[(2,4-dichlorophenyl)methoxy]ethyl]-1H-imidazole], the “activity against strains of Staphylococci and Enterococci with reduced susceptibility to vancomycin” value [1] was “good activity”, the “activity against strains of Staphylococci and Enterococci with reduced susceptibility to vancomycin” value ([1]; listed as miconazole) was “capable of inhibiting the growth” and the “activity against Gram-negative organisms” value (Gram-negative organisms) was “no significant activity”. For the same molecule, the MIC [2] was 0.25 to 2 µg/mL (≈ 0.601 to 4.81 µM), the MIC [3, 17] was 5 µg/mL (≈ 12 µM) and the MIC [3, 18] was > 6 µg/mL. The MIC [3, 19] was > 6 µg/mL, the MIC [4, 17] was 1 µg/mL (≈ 2.4 µM) and the MIC [4, 18] was 2 µg/mL (≈ 4.81 µM). The MIC [4, 19] was 1 µg/mL (≈ 2.4 µM), the MIC ([5]; ESBL700603, K. pneumoniae ESBL 700603, replicate 1, read-out: Minimum inhibitory concentration (MIC)) was > 10 µg/mL and the MIC ([5]; ESBL700603, K. pneumoniae ESBL 700603, replicate 2, read-out: Minimum inhibitory concentration (MIC)) was > 6 µg/mL. The MIC ([5]; ESBL700603, K. pneumoniae ESBL 700603, replicate 3, read-out: Minimum inhibitory concentration (MIC)) was > 6 µg/mL, the MIC ([6]; ATCC1228, S. epidermidis ATCC 1228, replicate 1, read-out: Minimum inhibitory concentration (MIC)) was 2.5 µg/mL (≈ 6.01 µM) and the MIC ([6]; ATCC1228, S. epidermidis ATCC 1228, replicate 2, read-out: Minimum inhibitory concentration (MIC)) was 2 µg/mL (≈ 4.81 µM). For the same molecule, the MIC ([6]; ATCC1228, S. epidermidis ATCC 1228, replicate 3, read-out: Minimum inhibitory concentration (MIC)) was 2 µg/mL (≈ 4.81 µM), the MIC ([7]; NCTC10662, P. aeruginosa NCTC 10662, replicate 1, read-out: Minimum inhibitory concentration (MIC)) was > 10 µg/mL and the MIC ([7]; NCTC10662, P. aeruginosa NCTC 10662, replicate 2, read-out: Minimum inhibitory concentration (MIC)) was > 6 µg/mL. The MIC ([7]; NCTC10662, P. aeruginosa NCTC 10662, replicate 3, read-out: Minimum inhibitory concentration (MIC)) was > 6 µg/mL, the MIC ([8]; NCTC10418, E. coli NCTC 10418, replicate 1, read-out: Minimum inhibitory concentration (MIC)) was > 10 µg/mL and the MIC ([8]; NCTC10418, E. coli NCTC 10418, replicate 2, read-out: Minimum inhibitory concentration (MIC)) was > 6 µg/mL. The MIC ([8]; NCTC10418, E. coli NCTC 10418, replicate 3, read-out: Minimum inhibitory concentration (MIC)) was > 6 µg/mL, the MIC [9, 17] was 1 µg/mL (≈ 2.4 µM) and the MIC [9, 18] was 1.5 µg/mL (≈ 3.6 µM). It also gave an MIC [9, 19] of 2 µg/mL (≈ 4.81 µM), an MIC [10, 17] of 2.5 µg/mL (≈ 6.01 µM) and an MIC [10, 18] of 3 µg/mL (≈ 7.21 µM). The MIC [10, 19] was 2.5 µg/mL (≈ 6.01 µM), the MIC ([11]; E. faecium (VRE) NCTC 7171, replicate 1, read-out: Minimum inhibitory concentration (MIC)) was 3.5 µg/mL (≈ 8.41 µM) and the MIC ([11]; E. faecium (VRE) NCTC 7171, replicate 2, read-out: Minimum inhibitory concentration (MIC)) was 6 µg/mL (≈ 14.4 µM). The MIC ([11]; E. faecium (VRE) NCTC 7171, replicate 3, read-out: Minimum inhibitory concentration (MIC)) was 5.5 µg/mL (≈ 13.2 µM), the MIC ([12]; E. faecium (VRE) E15 VanA ATCC 4147, replicate 1, read-out: Minimum inhibitory concentration (MIC)) was 1.5 µg/mL (≈ 3.6 µM) and the MIC ([12]; E. faecium (VRE) E15 VanA ATCC 4147, replicate 2, read-out: Minimum inhibitory concentration (MIC)) was 3 µg/mL (≈ 7.21 µM). It also gave an MIC ([12]; E. faecium (VRE) E15 VanA ATCC 4147, replicate 3, read-out: Minimum inhibitory concentration (MIC)) of 3 µg/mL (≈ 7.21 µM), an MIC ([13]; E. gallinarum (VRE) E1 NCTC 12359 VanC1, replicate 1, read-out: Minimum inhibitory concentration (MIC)) of 2 µg/mL (≈ 4.81 µM) and an MIC ([13]; E. gallinarum (VRE) E1 NCTC 12359 VanC1, replicate 2, read-out: Minimum inhibitory concentration (MIC)) of 3 µg/mL (≈ 7.21 µM). The MIC ([13]; E. gallinarum (VRE) E1 NCTC 12359 VanC1, replicate 3, read-out: Minimum inhibitory concentration (MIC)) was 3.5 µg/mL (≈ 8.41 µM), the MIC [14, 17] was 1 µg/mL (≈ 2.4 µM) and the MIC [14, 18] was 2.5 µg/mL (≈ 6.01 µM). For the same molecule, the MIC [14, 19] was 2.5 µg/mL (≈ 6.01 µM), the MIC ([15]; ATCC19606, Acinetobacter Baumannii ATCC 19606, replicate 1, read-out: Minimum inhibitory concentration (MIC)) was > 10 µg/mL and the MIC ([15]; ATCC19606, Acinetobacter Baumannii ATCC 19606, replicate 2, read-out: Minimum inhibitory concentration (MIC)) was > 6 µg/mL. For the same molecule, the MIC ([15]; ATCC19606, Acinetobacter Baumannii ATCC 19606, replicate 3, read-out: Minimum inhibitory concentration (MIC)) was > 6 µg/mL, the MIC [16, 17] was 1 µg/mL (≈ 2.4 µM) and the MIC [16, 18] was 2.5 µg/mL (≈ 6.01 µM). For the same molecule, the MIC [16, 19] was 2.5 µg/mL (≈ 6.01 µM).
